Reference: US9687553B2, “Polymeric nanocarriers with linear dual response mechanism” (priority 2010, dated 2017)

Key:
[1] = Gd chelate; cited from earlier work
[2] = Relaxivity versus time, bench top contrast agent analyzer; format: physicochemical
Text: To probe the relationship between degradation and relaxivity further, real-time T1 measurements were taken of the polymer solutions using a Bruker minispec mq60 bench top contrast agent analyzer. This machine is able to take rapid T1 measurements over a long duration, allowing for real-time data to be collected. Following data collection, a relationship between T1 and relaxivity can be made, and the relaxivity can be plotted versus time. The relaxivity measurements were then normalized for direct comparison between the two polymer CAs.
Samples were first incubated at 37° C. and various pH values and then measured continuously over time.
To investigate the change in relaxivity over time at different pH values further, continuous T1 measurements were taken using a bench top contrast agent analyzer. Using this machine, the T1 time of a 200 μl solution in an NMR tube is able to be measured. Furthermore, the measurement duration is short, allowing for a more real-time investigation of the T1 time. Finally, the software allows for sequential measurements to be performed, allowing for over 24 h of continuous T1 data to be taken.
Solutions of both polymer contrast agents were prepared at the desired pH values and pre-incubated for 5 min at 37° C. prior to T1 measurements. […]

HCT116 cells = test: Transfection and EGFP expression, microscopy and flow cytometry; format: cell-based; conditions: 300 nM bafilomycin A1, nanocarrier delivery
Protocol: Expression and transfection efficiency of the HCT116 cells was tested by incubating them for 4 hr before washing excess nanocarriers and incubating cells in fresh media for 48 hr. […] PLGA-treated cells only had 2% of the cell population with signal intensity above background.
Immediate burst degradation and release of DNA from the dual pH-responsive nanocarriers only occurs in an environment of low pH. The endosome's low pH offers the appropriate stimulus to solubilize the polymer, resulting in an accelerated degradation via ketal hydrolysis. Bafilomycin A1, an inhibitor of V-ATPase, blocks the acidification of endosomes and has been previously used to characterize the mechanism of release of pH dependent polyplexes and nanocarriers. […] EGFP expression via nanocarrier delivery in HCT116 cells, measured by mean fluorescence, was affected by the presence of bafilomycin A1, causing 66% reduction in signal relative to non-treated cells (FIG. 37). […]
HCT116 cells were plated at a ˜50% density in a 24 well culture plate and allowed to attach overnight. […] The cells were then incubated for 48 hours and subsequently analyzed by fluorescence microscopy (Nikon) or flow-cytometry (Accuri C6) to detect green fluorescence. […] For flow cytometry, cells were first trysonized for […] followed by two washes with PBS and analyzed immediately. […]

Molecule	stability constant (log K) [1]	relaxivity as measured [2]	reduction in EGFP signal (mean fluorescence) relative to non-treated cells (HCT116 cells)
O=C([O-])CN(CCN(CC(=O)[O-])CC(=O)O)CCN(CC(=O)[O-])CC(=O)O.[Gd+3] [Gd-DTPA]	22.46	3.64 ± 0.12 mM⁻¹ s⁻¹	
CO/C1=C\C(C)=C\[C@@H](C)[C@@H](O)[C@@H](C)C/C(C)=C/C=C/[C@H](OC)[C@@H]([C@@H](C)[C@@H](O)[C@H](C)[C@@]2(O)C[C@@H](O)[C@H](C)[C@@H](C(C)C)O2)OC1=O [bafilomycin A1]			66%
Gd-DTPA-bisamide	16.84		
